“Also recorded” adds a separate entry of the source.
Assays:
[1] = target: T1, protein tyrosine phosphatase (PTP), particularly PTP1B (Homo sapiens, UniProt P18031); settings: Pathak & Yi 2001; cited from earlier work
T1 sequence (P18031 1-435): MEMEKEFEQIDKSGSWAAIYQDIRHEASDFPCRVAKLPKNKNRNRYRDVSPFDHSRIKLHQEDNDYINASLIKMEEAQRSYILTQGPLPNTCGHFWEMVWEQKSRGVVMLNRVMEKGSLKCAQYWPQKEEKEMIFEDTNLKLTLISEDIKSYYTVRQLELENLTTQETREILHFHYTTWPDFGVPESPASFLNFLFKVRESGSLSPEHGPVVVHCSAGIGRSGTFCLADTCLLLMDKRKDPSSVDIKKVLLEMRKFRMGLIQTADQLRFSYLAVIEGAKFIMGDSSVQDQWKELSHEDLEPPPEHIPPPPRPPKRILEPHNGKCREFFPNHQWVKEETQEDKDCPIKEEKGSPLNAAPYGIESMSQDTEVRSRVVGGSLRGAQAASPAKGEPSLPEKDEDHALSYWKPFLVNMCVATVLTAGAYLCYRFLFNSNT

[2] = test system: purified human CD4+ T cells; assay: Anti-TCR induced proliferation ([3H]-thymidine) of CD4-ligated purified CD4+ T cells, rescue by cytokines; type: cell-based; settings: for reversal of inhibition of proliferation at higher cytokine concentrations: up to 80 U/ml, data not shown; for anti-TCR induced proliferative response of CD4-ligated T cells: 20 U/ml cytokine, gp120 or anti-CD4 ligation before plate-bound anti-TCR, 3 days, FIG. 1
Experimental: Heparinized venous blood from healthy adult human donors was separated on a Ficoll-Paque (Pharmacia Biotech) gradient to obtain lymphocytes. CD4^+ T cells were isolated by incubation with anti-CD8 mAb (OKT8, 20 Ag/ml, ATCC), followed by negative selection on goat anti-mouse IgG coated Immulan beads (Biotecx Laboratories).
Specifically, the purified CD4^+ T cells in balanced salts solution were incubated with or without gp120 (rgp120SF2, 10 μg/ml) and crosslinked with anti-gp120 antibody (1:250 dilution) or anti-CD4 mAb (anti-CD4, Leu-3α, 20 μg/ml) for 1 hr at 37° C.
Proliferation in response to plate-bound anti-TCR was determined as follows. Cells were washed, resuspended in RPMI-1640 culture media (GIBCO) supplemented with 10% fetal bovine serum (FBS, Gemini BioProducts) and 1×10^5 cells were added to triplicate wells of an anti-T cell receptor monoclonal antibody-coated (anti-TCR, BMA-031, 50 μg/ml) 96-well plate (Becton Dickinson). […] Culture plates were incubated for 3 days at 37° C. with 1 μCi/Well [^3H]-thymidine (NEN) present during the final 5 hours of culture. The cells were harvested and processed to determine ^3H-thymidine incorporation.

IL-2R (α-chain, CD25) = assay: Activation-induced IL-2R (CD25) expression on CD4 primed T cells by flow cytometry; type: cell-based, human; settings: 20 U/ml cytokine; 24 hours; FIGS. 2A, 2B
Experimental: Expression of high affinity IL-2R (CD25) was also analyzed in CD4 primed T cells. To determine the expression of IL-2R (α-chain, CD25), the culture plates were set up as described in Example 1 and incubated at 37° C. for 24 hours. 2×10^5 cells were stained with FITC-conjugated anti-CD25 mAb (Pharmingen) and analyzed by flow cytometry (Coulter XL).

JAK3 [3] = assay: JAK3 expression and tyrosine phosphorylation (immunoprecipitation/Western blot) in TCR/CD3-stimulated CD4+ T cells with or without prior CD4 ligation; type: cell-based, human; settings: for reversal of gp120 or anti-CD4 induced inhibition of JAK3 expression and activation: 20 U/ml cytokine, FIG. 4
Experimental: In this experiment, the present inventors determined the activation status of JAK3 in CD4^+ T cells which were activated through the TCR subsequent to CD4 ligation.
Briefly, the purified CD4^+ T cells were incubated with or without gp120 and anti-gp120 antibody or anti-CD4 for 1 hour at 37° C. 3×10^6 cells per well were incubated at 37° C. in an anti-CD3 mAb coated (anti-CD3, OKT3, 50 μg/ml, ATCC) 12-well plate. Cells were harvested after various times and lysed in Tris-buffered saline (TBS) containing 1% NP-40, phosphatase inhibitors and protease inhibitors. After micro centrifugation, the post-nuclear lysates were used for immunoprecipitation with anti-JAK3 polyclonal antibody (anti-JAK3, 10 μl, Santa Cruz Biotechnology). The antibody-protein complex was pelleted using Sepharose-conjugated Protein A (Sigma) boiled in sample buffer (0.4% SDS, 3% glycerol and 1% β-mercaptoethanol (2-ME)) and the proteins were separated by 7.5% SDS-PAGE. The proteins were transferred to nitrocellulose membrane and immunoblotted with antiphosphotyrosine mAb (anti-P-Tyr, Ab-2, Oncogene Science) Positive protein bands were detected with horseradish peroxidase (HRP)-conjugated goat anti-mouse IgG (Jackson ImmunoResearch) and SuperSignal Substrate (SSS, Pierce). Membranes were stripped with 62.5 mM Tris-HCl, pH 6.7, containing 10 mM 2-ME, and 2% SDS, immunoblotted with anti-JAK3, and developed with HRP-conjugated protein A and SSS.
In some experiments, 1.5×10^6 cell equivalents of post-nuclear lysate were boiled with sample buffer and separated by 7.5% SDS-PAGE. Nitrocellulose membrane was immunoblotted with (anti-JAK3 and then stripped and immunoblotted with anti-actin mAb (anti-actin, Sigma), as described above. Optical density (O.D.) of positive bands was measured with the Stratagene Eagle Eye II.

JAK3 [4] = assay: JAK3 expression (Western blot) in mock- or HIV-1 NL4-3-infected CD4+ T cell PHA blasts; type: cell-based, human; settings: 20 U/ml, 48 hours
Experimental: In this experiment, purified human CD4^+ T cells isolated as described above and activated with PHA for 3 days were infected for 4 days with a laboratory cloned strain of HIV-1, NL4-3. […] Cells were harvested and lysed with TBS/1% NP40 and analyzed on 7.5% SDS PAGE. Western blots using anti-JAK3 or anti-actin were prepared as described in Example 3.

JAK1 = JAK1 activation in T cells stimulated through TCR/CD3 with or without prior CD4 ligation; type: cell-based, human; settings: CD4 ligation before TCR/CD3 stimulation; FIG. 5
Source text: Another Janus family kinase, JAK1, associates with the β chain of IL-2R and with the α chains of IL-4R and IL-7R, and is autophosphorylated upon activation (Johnston et al. (1994) Nature, 370:151; and Russell et al. (1994) Science, 270:797).

CD4 = CD4 (Homo sapiens, UniProt P01730); settings: ligation of CD4; literature; cited from earlier work
HIV-1 LTR = assay: HIV-1 LTR-luciferase activity in resting CD4+ T cells; type: cell-based; settings: STAT5 expression vector or IL-2 for 1 hour, FIG. 17
Source text: Resting CD4^+ T cells were transfected with a construct containing luciferase under the control of HIV-1 LTR or a control luciferase construct (Dual-luciferase© Reporter Assay System, Promega, Madison, Wis.). The cells were also optionally transfected with an expression vector encoding STAT5. […] The luciferase activity of the cellular lysates was subsequently measured.

Which “cellular protein tyrosine phosphatase (PTP) inhibition, particularly PTP1B” value [1] does the source give for O.O.O.O.O.O.O.O.O.O=C([O-])[C@@H]1[O][Sb]2([O-])([O][Sb]34([OH])[O][C@H]([C@H](O)CO)[C@H]([O]3)[C@H](C(=O)[O-])[O]4)[O][C@H]([C@H](O)CO)[C@@H]1[O]2.[Na+].[Na+].[Na+] [pentostam, stibogluconate sodium] here?
Its value is “inhibit”.

With “IL-6: cytokine that binds to receptors on T cells which lack γc” as the molecule, how does the “reversal of inhibition of proliferation at higher cytokine concentrations” value [2] read?
Its value is “did not reverse the inhibition of proliferation”.

With “IL-7: cytokine which binds to receptors on T cells having γc; Genzyme” as the molecule, how does the “anti-TCR induced proliferative response of CD4-ligated T cells” value [2] read?
The value was “restored the proliferative response”.

And the “activation-induced CD25 expression on CD4 primed T cells” value (IL-2R (α-chain, CD25))?
The value was “restored activation-induced CD25 expression”.

What about the “reversal of gp120 or anti-CD4 induced inhibition of JAK3 expression and activation” value (JAK3 [3]) of the same molecule?
Its value is “completely reversed”.

What about the “JAK3 expression in anti-CD3 stimulated HIV infected T cells” value (JAK3 [4]; versus stimulated HIV-infected cells without cytokine) of the same molecule?
The value was “significantly increased; also recorded: increases JAK3 expression”.

What about the “JAK3 expression in anti-CD3 stimulated mock-infected T cells” value (JAK3 [4]; versus stimulated cells without cytokine) of the same molecule?
Its value is “increased JAK3 expression slightly”.

Which results are given for “gp120: HIV surface glycoprotein, crosslinked with anti-gp120 antibody”?
extent of inhibition of JAK3 expression and activation (JAK3 [3]; CD4 ligation before anti-CD3 stimulation, FIG. 3A): incomplete; TCR/CD3-induced expression and phosphorylation of JAK3 (JAK3 [3]; CD4 ligation before anti-CD3 stimulation, FIGS. 3A, 3B): inhibits; activation status of JAK1 (JAK1): did not significantly change; TCR/CD3-induced IL-2R expression, IL-2 production, and proliferation (CD4): inhibit

B1: STAT5: over-expressed from an expression vector encoding STAT5 (protein, UniProt P42229 1-794, looked up)
Signal transducer and …: MAGWIQAQQLQGDALRQMQVLYGQHFPIEVRHYLAQWIESQPWDAIDLDNPQDRAQATQLLEGLVQELQKKAEHQVGEDGFLLKIKLGHYATQLQKTYDRCPLELVRCIRHILYNEQRLVREANNCSSPAGILVDAMSQKHLQINQTFEELRLVTQDTENELKKLQQTQEYFIIQYQESLRIQAQFAQLAQLSPQERLSRETALQQKQVSLEAWLQREAQTLQQYRVELAEKHQKTLQLLRKQQTIILDDELIQWKRRQQLAGNGGPPEGSLDVLQSWCEKLAEIIWQNRQQIRRAEHLCQQLPIPGPVEEMLAEVNATITDIISALVTSTFIIEKQPPQVLKTQTKFAATVRLLVGGKLNVHMNPPQVKATIISEQQAKSLLKNENTRNECSGEILNNCCVMEYHQATGTLSAHFRNMSLKRIKRADRRGAESVTEEKFTVLFESQFSVGSNELVFQVKTLSLPVVVIVHGSQDHNATATVLWDNAFAEPGRVPFAVPDKVLWPQLCEALNMKFKAEVQSNRGLTKENLVFLAQKLFNNSSSHLEDYSGLSVSWSQFNRENLPGWNYTFWQWFDGVMEVLKKHHKPHWNDGAILGFVNKQQAHDLLINKPDGTFLLRFSDSEIGGITIAWKFDSPERNLWNLKPFTTRDFSIRSLADRLGDLSYLIYVFPDRPKDEVFSKYYTPVLAKAVDGYVKPQIKQVVPEFVNASADAGGSSATYMDQAPSPAVCPQAPYNMYPQNPDHVLDQDGEFDLDETMDVARHVEELLRRPMDSLDSRLSPPAGLFTSARGSLS
Which “activity from the HIV-1 LTR (luciferase activity)” value (HIV-1 LTR) does the source give for B1 here?
Its value is “increased activity”.

B2: IL-12: cytokine that binds to receptors on T cells which lack γc (protein, UniProt P29459 23-219; P29460 23-328, looked up)
Interleukin-12 subunit alpha: RNLPVATPDPGMFPCLHHSQNLLRAVSNMLQKARQTLEFYPCTSEEIDHEDITKDKTSTVEACLPLELTKNESCLNSRETSFITNGSCLASRKTSFMMALCLSSIYEDLKMYQVEFKTMNAKLLMDPKRQIFLDQNMLAVIDELMQALNFNSETVPQKSSLEEPDFYKTKIKLCILLHAFRIRAVTIDRVMSYLNAS
Interleukin-12 subunit beta: IWELKKDVYVVELDWYPDAPGEMVVLTCDTPEEDGITWTLDQSSEVLGSGKTLTIQVKEFGDAGQYTCHKGGEVLSHSLLLLHKKEDGIWSTDILKDQKEPKNKTFLRCEAKNYSGRFTCWWLTTISTDLTFSVKSSRGSSDPQGVTCGAATLSAERVRGDNKEYEYSVECQEDSACPAAEESLPIEVMVDAVHKLKYENYTSSFFIRDIIKPDPPKNLQLKPLKNSRQVEVSWEYPDTWSTPHSYFSLTFCVQVQGKSKREKKDRVFTDKTSATVICRKNASISVRAQDRYYSSSWSEWASVPCS
With B2 as the molecule, how does the “reversal of inhibition of proliferation at higher cytokine concentrations” value [2] read?
Its value is “did not reverse the inhibition of proliferation”.

B3: IL-4: cytokine which binds to receptors on T cells having γc; R&D Systems (protein, UniProt P05112 25-153, looked up)
Interleukin-4: HKCDITLQEIIKTLNSLTEQKTLCTELTVTDIFAASKNTTEKETFCRAATVLRQFYSHHEKDTRCLGATAQQFHRHKQLIRFLKRLDRNLWGLAGLNSCPVKEANQSTLENFLERLKTIMREKYSKCSS
Which results are given for B3?
anti-TCR induced proliferative response of CD4-ligated T cells [2]: restored the proliferative response; activation-induced CD25 expression on CD4 primed T cells (IL-2R (α-chain, CD25)): restored activation-induced CD25 expression; reversal of gp120 or anti-CD4 induced inhibition of JAK3 expression and activation (JAK3 [3]): completely reversed

Reference: US20050124645A1, “Methods and compositions for increasing CD4lymphocyte immune responsiveness” (priority 1998, published 2005)
